{
  "source": "patent US9717715B2",
  "about": "“Method of combination therapy using an anti-C-Met antibody” (Samsung Electronics Co., Ltd., priority 2013, dated 2017)",
  "key": {"[1]": {"tested_on": "human gastric cancer MKN45 cells", "experiment": "MKN45 orthotopic xenograft (metastasis)", "type": "in vivo, mouse", "conditions": "5-FU group, dose not given", "source_text": "For the MKN45 orthotopic xenograft experiment, human gastric cancer MKN45 cells (Japanese Cancer Research Bank, JCRB, Tokyo, Japan) were inoculated into donor BALB/C nude mice. When the tumor size reached the size of 600-800 mm3, the donor mice were euthanized, and the tumor was excised through sterile surgical procedure. The tumors were cut into fragments the size of 1×1×1 mm and implanted into the wall of great gastric curvature of recipient mice through sterile surgery under isoflurane anesthesia. 7 days after the surgery, recipient mice with orthotopic tumors were randomized into groups according to body weight and dosing was commenced. huAbF46-H4-A1 (IgG2 Fc) was injected into a vein once a week for 9 weeks. At the end of the in vivo study, orthotopic tumor weight was recorded and metastasis to the other organ was checked by macroscopic examination."}, "[2]": {"tested_on": "breast cancer cell line BT-474", "experiment": "Combination cell viability CTG assay, BT-474", "type": "cell-based", "conditions": "BT-474, 72 hours", "procedure": "(§1) Cell proliferation in response to antibody treatment in vitro was assessed by a CTG (Promega) assay according to manufacturer's instructions. EBC1, HT-29, BT-474, HCC1806, HCC1954 and MKN45 cells were respectively plated at a density of 5×10^3 cells per well in FBS 10% (v/v) RPMI 1640 medium (Gibco) onto a 96-well plate (BD). The HT-29 (HTB-38), BT-474 (HTB-20), HCC1806 (CRL-2335) and HCC1954 (CRL-2338) cell lines were all purchased from ATCC. MKN45 (JCRB0254) and EBC1 (JCRB0820) cell lines were purchased from the Health Science Research Resource Bank. After 24 hours incubation, the c-Met targeting antibody huAbF46-H4-A1 (IgG2 Fc) was added alone or in combination with another drug (lapatinib, regorafenib or vemurafenib) diluted in 10% FBS (v/v) RPMI medium. Lapatinib, regorafenib and vemurafenib were purchased from Selleck Chemicals.\nFor the combination treatment of each experiment, IC20 concentration of one drug (drug A) and differing amounts of the other drug (drug B) were treated to see if the efficacy of drug B is improved by combi-treatment with drug A in a dose-dependent manner (see FIGS. 16-22). After 72 hours incubation, 100 μL of the CTG reagent (Promega) was added to each well followed by incubation at 37° C. for 30 minutes. The luminescence was measured using an Envision Multilabel Plate Reader (Perkin Elmer)."}, "[3]": {"tested_on": "breast cancer cell line HCC1806", "experiment": "Combination cell viability CTG assay, HCC1806", "type": "cell-based", "conditions": "HCC1806, 72 hours, FIG. 17", "procedure": "as §1\n(§2) After 72 hours incubation, 100 μL of the CTG reagent (Promega) was added to each well followed by incubation at 37° C. for 30 minutes. The luminescence was measured using an Envision Multilabel Plate Reader (Perkin Elmer)."}, "[4]": {"tested_on": "breast cancer cell line HCC1954", "experiment": "Combination cell viability CTG assay, HCC1954", "type": "cell-based", "conditions": "HCC1954, 72 hours, FIG. 18", "procedure": "as §1, §2"}, "[5]": {"tested_on": "colorectal cancer cell line HT29", "experiment": "Combination cell viability CTG assay, HT29", "type": "cell-based", "conditions": "HT29, 72 hours, FIG. 19", "procedure": "as §1, §2"}, "[6]": {"tested_on": "MHCC97H (human liver cancer cell line)", "experiment": "MHCC97H xenograft model", "type": "in vivo, mouse", "conditions": "30 mg/kg p.o. q.d. x 4 weeks", "procedure": "The antitumor activity of huAbF46-H4-A1 (IgG2 Fc) was evaluated in a BALB/C nude mouse MHCC97H (human liver cancer cell line) xenograft model (referring to Example 16.2). Approximately 3 million MHCC97H cells in 100 μL of serum-free media were injected via s.c. to each of the 140 mice under anesthesia by 1-2% isoflurane. Ten days after subcutaneous inoculation with MHCC97H tumor cells, dosing commenced in the following treatment groups: 0 (PBS vehicle), 0.2, 1, 5 or 10 mg/kg huAbF46-H4-A1 (IgG2 Fc) i.v., q.w.×4 weeks; 30 mg/kg sorafenib p.o., q.d.×4 weeks (positive control). Each group consisted of 15 mice. Tumor volumes and body weights were measured two to three times a week for total study period about 4 weeks. The tumor volume (V) was calculated as follows: V (mm^3)={long axis length (mm)×(short axis length (mm))^2}/2."}},
  "data": [
    {"compound": "O=c1[nH]cc(F)c(=O)[nH]1", "note": "[Antibody 5-FU, 5-FU, reference compound]", "values": [
      {"measurement": "Number of metastasis lesion", "setting": "[1]", "value": 0}
    ]},
    {"compound": "CS(=O)(=O)CCNCc1ccc(-c2ccc3ncnc(Nc4ccc(OCc5cccc(F)c5)c(Cl)c4)c3c2)o1", "note": "[lapatinib]", "values": [
      {"measurement": "anti-tumor efficacy (cell viability) when co-treated with huAbF46-H4-A1 (IgG2 Fc)", "setting": "[2]; FIG. 16", "value": "significantly improved"},
      {"measurement": "anti-tumor efficacy (cell viability) when co-treated with huAbF46-H4-A1 (IgG2 Fc)", "setting": "[3]", "value": "significantly improved"},
      {"measurement": "anti-tumor efficacy (cell viability) when co-treated with huAbF46-H4-A1 (IgG2 Fc)", "setting": "[4]", "value": "significantly improved"},
      {"measurement": "anti-tumor efficacy (cell viability) when co-treated with huAbF46-H4-A1 (IgG2 Fc)", "setting": "[5]", "value": "significantly improved"}
    ]},
    {"compound": "CNC(=O)c1cc(Oc2ccc(NC(=O)Nc3ccc(Cl)c(C(F)(F)F)c3)cc2)ccn1", "note": "[sorafenib, reference compound]", "values": [
      {"measurement": "tumor growth", "setting": "[6]", "value": "significant inhibition of MHCC97H tumor growth"}
    ]},
    {"compound": "CNC(=O)c1cc(Oc2ccc(NC(=O)Nc3ccc(Cl)c(C(F)(F)F)c3)c(F)c2)ccn1", "note": "[regorafenib]", "values": [
      {"measurement": "anti-tumor efficacy (cell viability) when co-treated with huAbF46-H4-A1 (IgG2 Fc)", "setting": "[2]; FIG. 20", "value": "significantly improved"}
    ]}
  ]
}
